Data taken from PubChem BioAssay (NCI).
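Values below derive from 48-hour exposures of cells grown in 96-well plates, with endpoints linearly interpolated between the two concentrations bracketing the appropriate inhibition level. GI50: concentration for 50% inhibition of growth. TGI is the concentration that stops growth completely.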

Columns and labels:
Assay in all cases: NCI anticancer screen, dose series, 48 h
786-0 renal = tested on: 786-0 renal
K-562 leukemia = tested on: K-562 leukemia
LXFL 529 NSCLC = tested on: LXFL 529 NSCLC
M19-MEL melanoma = tested on: M19-MEL melanoma
OVCAR-4 ovarian = tested on: OVCAR-4 ovarian
SF-295 CNS = tested on: SF-295 CNS
SK-OV-3 ovarian = tested on: SK-OV-3 ovarian
TK-10 renal = tested on: TK-10 renal
MDA-MB-435 = tested on: MDA-MB-435
NCI/ADR-RES ovarian = tested on: NCI/ADR-RES ovarian

Question: Which TGI (786-0 renal) does the source give for CC(=O)OCc1nnn2c1C(OC(C)=O)CC2 (stereo not given) here?
Answer: > 100 µM

Question: And the TGI (K-562 leukemia)?
Answer: > 100 µM

Question: And the TGI (LXFL 529 NSCLC)?
Answer: > 100 µM

Question: What about the TGI (M19-MEL melanoma) of the same compound?
Answer: > 100 µM

Question: What about the TGI (OVCAR-4 ovarian) of the same compound?
Answer: > 100 µM

Question: And the TGI (SF-295 CNS)?
Answer: > 100 µM

Question: What about the TGI (SK-OV-3 ovarian) of the same compound?
Answer: > 100 µM

Question: And the TGI (TK-10 renal)?
Answer: > 100 µM

Question: With CS(=O)(=O)N1CCC(Nc2ncc(C(=O)c3c(F)cccc3F)c(N)n2)CC1 as the compound, how does the GI50 (786-0 renal) read?
Answer: 12.6 µM

Question: And the TGI (786-0 renal)?
Answer: > 25 µM

Question: And the GI50 (K-562 leukemia)?
Answer: 20.4 µM

Question: And the TGI (K-562 leukemia)?
Answer: > 25 µM

Question: What about the GI50 (MDA-MB-435) of the same compound?
Answer: 11.1 µM

Question: What about the TGI (MDA-MB-435) of the same compound?
Answer: > 25 µM

Question: And the GI50 (NCI/ADR-RES ovarian)?
Answer: > 25 µM

Question: And the TGI (NCI/ADR-RES ovarian)?
Answer: > 25 µM

Question: And the GI50 (OVCAR-4 ovarian)?
Answer: > 13.5 µM

Question: What about the TGI (OVCAR-4 ovarian) of the same compound?
Answer: > 25 µM

Question: And the GI50 (SF-295 CNS)?
Answer: 11.2 µM

Question: What about the TGI (SF-295 CNS) of the same compound?
Answer: > 25 µM

Question: What about the GI50 (SK-OV-3 ovarian) of the same compound?
Answer: > 25 µM

Question: What about the TGI (SK-OV-3 ovarian) of the same compound?
Answer: > 25 µM

Question: And the GI50 (TK-10 renal)?
Answer: 7.98 µM

Question: What about the TGI (TK-10 renal) of the same compound?
Answer: > 25 µM

Question: With Clc1nc(Cl)c2ncn(-c3ccccc3)c2n1 as the compound, how does the GI50 (786-0 renal) read?
Answer: 5.51 µM

Question: And the TGI (786-0 renal)?
Answer: 18.3 µM

Question: And the GI50 (K-562 leukemia)?
Answer: 2.61 µM

Question: What about the TGI (K-562 leukemia) of the same compound?
Answer: 7.05 µM

Question: What about the GI50 (MDA-MB-435) of the same compound?
Answer: 3.32 µM

Question: What about the TGI (MDA-MB-435) of the same compound?
Answer: 13.2 µM

Question: What about the GI50 (NCI/ADR-RES ovarian) of the same compound?
Answer: 1.85 µM

Question: What about the TGI (NCI/ADR-RES ovarian) of the same compound?
Answer: 3.55 µM

Question: What about the GI50 (OVCAR-4 ovarian) of the same compound?
Answer: 10.5 µM

Question: And the TGI (OVCAR-4 ovarian)?
Answer: 24.5 µM

Question: What about the GI50 (SF-295 CNS) of the same compound?
Answer: 10.3 µM

Question: What about the TGI (SF-295 CNS) of the same compound?
Answer: 23 µM

Question: What about the GI50 (SK-OV-3 ovarian) of the same compound?
Answer: 12.5 µM

Question: What about the TGI (SK-OV-3 ovarian) of the same compound?
Answer: 25 µM

Question: What about the GI50 (TK-10 renal) of the same compound?
Answer: 7.46 µM

Question: And the TGI (TK-10 renal)?
Answer: 20.9 µM

Question: CC1=C2CC[C@@]3(C)C(=CCC3O)C2(C)CCC1=O (stereo not given in full) was tested. Which TGI (786-0 renal) did it give?
Answer: > 100 µM

Question: And the TGI (LXFL 529 NSCLC)?
Answer: > 100 µM

Question: And the TGI (M19-MEL melanoma)?
Answer: > 100 µM

Question: And the TGI (OVCAR-4 ovarian)?
Answer: > 100 µM

Question: What about the TGI (SF-295 CNS) of the same compound?
Answer: > 100 µM

Question: And the TGI (SK-OV-3 ovarian)?
Answer: > 100 µM

Question: And the TGI (TK-10 renal)?
Answer: > 100 µM

Question: For O=C(Cc1cc(O)ccc1O)NO, which GI50 (786-0 renal) is on record?
Answer: 18.9 µM

Question: And the TGI (786-0 renal)?
Answer: 34.5 µM

Question: And the GI50 (K-562 leukemia)?
Answer: 21.2 µM

Question: What about the TGI (K-562 leukemia) of the same compound?
Answer: 45.8 µM

Question: And the GI50 (MDA-MB-435)?
Answer: 15.4 µM

Question: What about the TGI (MDA-MB-435) of the same compound?
Answer: 31.2 µM

Question: What about the GI50 (NCI/ADR-RES ovarian) of the same compound?
Answer: > 100 µM

Question: And the TGI (NCI/ADR-RES ovarian)?
Answer: > 100 µM

Question: And the GI50 (OVCAR-4 ovarian)?
Answer: > 100 µM

Question: And the TGI (OVCAR-4 ovarian)?
Answer: > 100 µM

Question: What about the GI50 (SF-295 CNS) of the same compound?
Answer: 21.7 µM

Question: What about the TGI (SF-295 CNS) of the same compound?
Answer: 47.9 µM

Question: And the GI50 (SK-OV-3 ovarian)?
Answer: > 100 µM

Question: And the TGI (SK-OV-3 ovarian)?
Answer: > 100 µM

Question: And the GI50 (TK-10 renal)?
Answer: 57.6 µM

Question: And the TGI (TK-10 renal)?
Answer: > 100 µM

Question: For CCOC(=O)C(C(=O)OCC)=C1C=C(c2ccccc2)c2ccccc21, which TGI (786-0 renal) is on record?
Answer: > 100 µM

Question: And the TGI (K-562 leukemia)?
Answer: > 100 µM

Question: What about the TGI (LXFL 529 NSCLC) of the same compound?
Answer: > 100 µM

Question: And the TGI (M19-MEL melanoma)?
Answer: > 100 µM

Question: What about the TGI (OVCAR-4 ovarian) of the same compound?
Answer: > 100 µM

Question: And the TGI (SF-295 CNS)?
Answer: > 100 µM

Question: What about the TGI (SK-OV-3 ovarian) of the same compound?
Answer: > 100 µM

Question: What about the TGI (TK-10 renal) of the same compound?
Answer: > 100 µM

Question: CC(C)C[C@H](NC(=O)[C@@H](Cc1ccccc1)n1ccc(Nc2ccccc2)cc1=O)B(O)O was tested. Which GI50 (786-0 renal) did it give?
Answer: 0.582 µM

Question: What about the TGI (786-0 renal) of the same compound?
Answer: 59 µM

Question: What about the GI50 (K-562 leukemia) of the same compound?
Answer: 0.477 µM

Question: And the TGI (K-562 leukemia)?
Answer: > 100 µM

Question: What about the GI50 (MDA-MB-435) of the same compound?
Answer: 0.155 µM

Question: And the TGI (MDA-MB-435)?
Answer: 0.34 µM

Question: What about the GI50 (NCI/ADR-RES ovarian) of the same compound?
Answer: 13.4 µM

Question: And the TGI (NCI/ADR-RES ovarian)?
Answer: > 100 µM

Question: And the GI50 (OVCAR-4 ovarian)?
Answer: 1.18 µM

Question: What about the TGI (OVCAR-4 ovarian) of the same compound?
Answer: 21.3 µM

Question: And the GI50 (SF-295 CNS)?
Answer: 0.285 µM

Question: What about the TGI (SF-295 CNS) of the same compound?
Answer: 1.22 µM

Question: What about the GI50 (SK-OV-3 ovarian) of the same compound?
Answer: 0.653 µM

Question: And the TGI (SK-OV-3 ovarian)?
Answer: 18.8 µM

Question: What about the GI50 (TK-10 renal) of the same compound?
Answer: 0.269 µM

Question: And the TGI (TK-10 renal)?
Answer: 0.98 µM

Question: What does the source list for COc1ccc(OC)c(C2=C(c3cn(C)c4ccccc34)C(=O)NC2=O)c1?
Answer: GI50 (786-0 renal): > 25 µM; TGI (786-0 renal): > 25 µM; GI50 (K-562 leukemia): 17.1 µM; TGI (K-562 leukemia): > 25 µM; GI50 (MDA-MB-435): 8.6 µM; TGI (MDA-MB-435): > 25 µM; GI50 (NCI/ADR-RES ovarian): > 25 µM; TGI (NCI/ADR-RES ovarian): > 25 µM; GI50 (OVCAR-4 ovarian): > 25 µM; TGI (OVCAR-4 ovarian): > 25 µM; GI50 (SF-295 CNS): > 22.7 µM; TGI (SF-295 CNS): > 25 µM; GI50 (SK-OV-3 ovarian): > 25 µM; TGI (SK-OV-3 ovarian): > 25 µM; GI50 (TK-10 renal): > 25 µM; TGI (TK-10 renal): > 25 µM

Question: With COC(=O)C1C(C(=O)O)C2(c3ccccc3)C(=O)C1(c1ccccc1)C(c1ccc(OC)cc1)=C2c1ccc(OC)cc1 (stereo not given) as the compound, how does the GI50 (786-0 renal) read?
Answer: 18.6 µM

Question: What about the TGI (786-0 renal) of the same compound?
Answer: 40.4 µM

Question: And the GI50 (K-562 leukemia)?
Answer: 28.4 µM

Question: What about the TGI (K-562 leukemia) of the same compound?
Answer: > 100 µM

Question: And the GI50 (MDA-MB-435)?
Answer: 28.8 µM

Question: And the TGI (MDA-MB-435)?
Answer: 60.7 µM

Question: And the GI50 (NCI/ADR-RES ovarian)?
Answer: 20.6 µM

Question: And the TGI (NCI/ADR-RES ovarian)?
Answer: 43.6 µM

Question: What about the GI50 (OVCAR-4 ovarian) of the same compound?
Answer: 19.7 µM

Question: And the TGI (OVCAR-4 ovarian)?
Answer: 55.2 µM

Question: What about the GI50 (SF-295 CNS) of the same compound?
Answer: 30.3 µM

Question: What about the TGI (SF-295 CNS) of the same compound?
Answer: 77.2 µM

Question: And the GI50 (SK-OV-3 ovarian)?
Answer: 25.3 µM

Question: What about the TGI (SK-OV-3 ovarian) of the same compound?
Answer: 59.4 µM

Question: What about the GI50 (TK-10 renal) of the same compound?
Answer: 31.8 µM

Question: What about the TGI (TK-10 renal) of the same compound?
Answer: > 100 µM

Question: CCCCCCCCCCCCCCCC(=O)NS(=O)(=O)OC[C@H]1O[C@@H](n2cnc3c(N)ncnc32)[C@H](O)[C@@H]1O was tested. Which GI50 (786-0 renal) did it give?
Answer: < 0.0491 µM

Question: What about the GI50 (K-562 leukemia) of the same compound?
Answer: 1.65 µM

Question: What about the TGI (K-562 leukemia) of the same compound?
Answer: 10 µM

Question: What about the GI50 (MDA-MB-435) of the same compound?
Answer: 0.21 µM

Question: And the TGI (MDA-MB-435)?
Answer: 0.551 µM

Question: What about the GI50 (NCI/ADR-RES ovarian) of the same compound?
Answer: 0.0917 µM

Question: And the TGI (NCI/ADR-RES ovarian)?
Answer: 3.55 µM

Question: What about the GI50 (OVCAR-4 ovarian) of the same compound?
Answer: 0.0392 µM

Question: And the TGI (OVCAR-4 ovarian)?
Answer: 0.255 µM

Question: What about the GI50 (SF-295 CNS) of the same compound?
Answer: 1.01 µM

Question: What about the TGI (SF-295 CNS) of the same compound?
Answer: 2.31 µM

Question: What about the GI50 (SK-OV-3 ovarian) of the same compound?
Answer: 0.278 µM

Question: What about the TGI (SK-OV-3 ovarian) of the same compound?
Answer: 1.15 µM

Question: And the GI50 (TK-10 renal)?
Answer: < 0.0163 µM

Question: What about the TGI (TK-10 renal) of the same compound?
Answer: < 0.0259 µM

Question: Which results are given for Nc1nc2ccc(CNc3ccc(C(=O)NC(CC(=O)O)C(=O)O)cc3)cc2c(=O)[nH]1 (stereo not given)?
Answer: GI50 (786-0 renal): 2.18 µM; TGI (786-0 renal): > 100 µM; GI50 (K-562 leukemia): 0.437 µM; TGI (K-562 leukemia): > 100 µM; GI50 (MDA-MB-435): 0.514 µM; TGI (MDA-MB-435): > 100 µM; GI50 (NCI/ADR-RES ovarian): 2.71 µM; TGI (NCI/ADR-RES ovarian): > 100 µM; GI50 (OVCAR-4 ovarian): > 100 µM; TGI (OVCAR-4 ovarian): > 100 µM; GI50 (SF-295 CNS): 1 µM; TGI (SF-295 CNS): > 28.7 µM; GI50 (SK-OV-3 ovarian): > 29.1 µM; TGI (SK-OV-3 ovarian): > 100 µM; GI50 (TK-10 renal): > 100 µM; TGI (TK-10 renal): > 100 µM
